Measurements published in patent US5204361A, “Method for treating laminitis in equine livestock” (priority 1988, dated 1993).

Key:
[1] = test system: caecal and large colon digesta of horses; experiment: Experiment 2 Part 4: fresh digesta of horses fed pelleted diet with virginiamycin; format: in vivo, horse; conditions: for pH, fresh digesta / L-lactate, fresh digesta / Total VFA, fresh digesta / % Acetate, fresh digesta / % Butyrate, fresh digesta / % Iso-valerate, fresh digesta / % Propionate, fresh digesta / % Valerate, fresh digesta: n = 5, mean; for % Acetate, fresh digesta / % Butyrate, fresh digesta / % Iso-valerate, fresh digesta / % Propionate, fresh digesta / % Valerate, fresh digesta: molar percentage, feed with virginiamycin
Method: A total of ten horses were used for this experiment. Five horses were offered 5 kg of a pelleted mixture (ground wheat 92.5%, ground lucerne chaff 5% and `Stafac 20` 2.5% to supply approximately 2.5 g virginiamycin. A further 5 horses were offered the same feed but without virginiamycin. Samples of caecal and large colon digesta were taken for analysis of pH, VFA, virginiamycin and L-lactate. Samples were also prepared as described above with buffer solution and incubated (1 flask/sample) with cornstarch (15 mg/ml diluted digesta). Following 20 hours incubation samples were taken for analysis of L-lactate and pH.

[2] = test system: horses given controlled doses of ground wheat; experiment: Experiment 3: in vivo action of virginiamycin in horses dosed with ground wheat; design: species or system horse
Method: These animals were pre-dosed with virginiamycin by feeding 2 kg of a mixture containing: chaff 1225 g, sugar 225 g, water 450 g and `Stafac 20` 100 g. This provided approximately 2 g virginiamycin/d. The sugar was first dissolved in water before adding the `Stafac 20` and mixing it into a uniform suspension. This mixture was then added to the chaff and mixed for 20 minutes. When this feed was not eaten on the second day on which it was offered the animals were dosed with 125 g `Stafac 20`/head (2.5 g virginiamycin/head), via a stomach tube. On the third day of the experiment the animals were given a dose of ground wheat. This provided approximately 6 mg virginiamycin/kg liveweight. The wheat was mixed in a slurry with water and given in two equal amounts with an interval of about 2 hours between doses. The animals were examined and sampled at 8 hour intervals over a period of 48 hours as described for Experiment 1 above. Times were taken from the first dose of wheat.
Eight horses were used for this experiment. Four animals received virginiamycin and 4 animals received the same treatment but without virginiamycin. The animals which received virginiamycin were pre-dosed for two days prior to administration of the wheat slurry by feeding 640 g of a mixture containing lucerne chaff 495 g, sugar 16.5 g, cornflour 8.3 g, water 115 g, `Stafac 500` 4.95 g. This provided approximately 2.48 g virginiamycin/d. This was prepared in the following way. An evenly mixed slurry of the sugar, cornflour, water and `Stafac 500` was prepared and this was added to the lucerne chaff before mixing thoroughly in a cement mixer. The control animals received 640 g of lucerne chaff without any additive. The doses of wheat administered on the third day provided 12 grams of ground wheat/kg liveweight. Again this was given in two equal amounts with an interval between doses. The wheat given to the horses on the virginiamycin treatment contained `Stafac 20` (20/kg wheat). This provided approximately 4.8 mg virginiamycin/kg liveweight. The animals were examined and sampled at 8 hour intervals over a period of 48 hours as described above for Experiment 1.

[3] = test system: caecal/large colon digesta; experiment: Experiment 2 Part 5: efficacy of tylosin relative to virginiamycin, digesta incubated with glucose; format: cell-based, horse; conditions: antibiotic 1.00 μg/ml, 37°, 20 hours, mean
[4] = Caecum, feed with virginiamycin approx 14 hours before slaughter
[5] = Colon, feed with virginiamycin approx 14 hours before slaughter

virginiamycin
pH, fresh digesta ([1]; Caecum, feed with approx 2.5 g virginiamycin approx 14 hours before slaughter): 6.2
L-lactate, fresh digesta [1, 4]: 10.3 mmol/L
Total VFA, fresh digesta [1, 4]: 76.1 mmol/L
% Acetate, fresh digesta ([1]; Caecum): 50.3%
% Butyrate, fresh digesta ([1]; Caecum): 3.2%
% Iso-valerate, fresh digesta ([1]; Caecum): 0.0%
% Propionate, fresh digesta ([1]; Caecum): 46.5%
% Valerate, fresh digesta ([1]; Caecum): 0.5%
L-lactate, fresh digesta [1, 5]: 10.2 mmol/L
Total VFA, fresh digesta [1, 5]: 118.7 mmol/L
pH, fresh digesta [1, 5]: 6.0
% Acetate, fresh digesta ([1]; Colon): 52.1%
% Butyrate, fresh digesta ([1]; Colon): 3.6%
% Iso-valerate, fresh digesta ([1]; Colon): 1.5%
% Propionate, fresh digesta ([1]; Colon): 44.3%
% Valerate, fresh digesta ([1]; Colon): 0.2%
molar percentage of propionate versus control animals ([1]; fresh digesta): more than twice
molar percentages of acetate, butyrate, isovalerate and valerate versus control animals ([1]; fresh digesta): reduced
pH of the digesta in the caecum or large colon versus control animals ([1]; fresh digesta): no significant effect
total concentration of VFA versus control animals ([1]; fresh digesta, p<0.001): lower total concentration of VFA
concentration of L-lactate in the caecal and large colon digesta versus control animals ([1]; fresh digesta, p<0.05): higher
signs of lameness ([2]; 5 animals dosed with virginiamycin, ground wheat, 48 hours, 3 of 4 controls Obel grade 2): none showed any signs of lameness
faecal pH ([2]; 48 hours after wheat slurry, FIG. 4(b)): no significant change
death after wheat slurry with virginiamycin ([2]; Part 1, 2 horses, approx 6 mg virginiamycin/kg liveweight, build up of gas in the caecum): one died after 16 hours
parameters associated with acidosis (blood bicarbonate and pH, and faecal pH) ([2]; after wheat slurry): within normal limits
blood L-lactate versus control ([2]; at 8 and 16 hours after wheat, FIG. 3): significantly higher
blood D-lactate ([2]; at 16 hours after wheat, FIG. 3): only a minor increase
blood L-lactate versus control ([2]; by 40 hours after wheat, FIG. 3): higher (p<0.05) in the control animals
blood D-lactate level ([2]; in vivo): maintained blood D-lactate at a low level
development of laminitis following excessive carbohydrate intake ([2]; in vivo): protected horses against the development of laminitis
gas produced during the initial rapid fermentation of the carbohydrate ([2]; in vivo): more gas was produced
heart rate versus control horses ([2]; in vivo): higher than that of the control horses
ill effects of the dose, second animal ([2]; in vivo): no ill effects
reduction in lameness versus control ([2]; virginiamycin prior to and in conjunction with the wheat slurry): significant (p<0.05) reduction
L-lactate [3]: 9.3 mmol/L
